Assay results published in patent publication US9232796B2, “Herbicidal compositions comprising 4-amino-3-chloro-5-fluoro-6-(4-chloro-2-fluoro-3-methoxyphenyl) pyridine-2-carboxylic acid or a derivative thereof and acetyl-CoA carboxylase (ACCase) inhibitors” (DOW AGROSCIENCES LLC, priority 2012, dated 2016).
Values joined by “and” are separate entries in the source; they are usually repeats but may differ in a detail not shown here. Equal entries are not always repeated.

Key:
[1] = system: AVEFA; test: Example III postemergence foliar-applied, greenhouse, weeds common to row crops such as corn and soybeans; format: in vivo, Avena fatua L.
Excerpt: Seeds or nutlets of the desired test plant species were planted in a soil matrix prepared by mixing a loam or sandy loam soil (e.g., 28.6 percent silt, 18.8 percent clay, and 52.6 percent sand, with a pH of about 5.8 and an organic matter content of about 1.8 percent) and calcareous grit in an 80 to 20 ratio. The soil matrix was contained in plastic pots with a surface area of 84.6 square centimeters (cm^2) and a volume of 560 cubic centimeters (cm^3). When required to ensure good germination and healthy plants, a fungicide treatment and/or other chemical or physical treatment was applied. The plants were grown for 7-31 days (d) in a greenhouse with an approximate 15 hour (h) photoperiod which was maintained at about 23-29° C. during the day and 22-28° C. during the night. Nutrients (Peters Excel® 15-5-15 5-Ca 2-Mg) and water were added on a regular basis and supplemental lighting was provided with overhead metal halide 1000-Watt lamps as necessary. The plants were employed for testing when they reached the first, second, or third true leaf stage.
Treatment requirements were calculated based upon the rates being tested, the concentration of active ingredient or acid equivalent in the formulation, and a 12 mL application volume at a rate of 187 L/ha.
Treatments consisted of the acid or esters of 4-amino-3-chloro-5-fluoro-6-(4-chloro-2-fluoro-3-methoxy-phenyl)pyridine-2-carboxylic acid (Compound A), each formulated as an SC (suspension concentrate), and various herbicidal components alone and in combination.
Other herbicidal components were applied on an acid equivalent basis and included acetyl coA carboxylase (ACCase)-inhibiting herbicide (cyclohexanedione and aryloxyphenoxypropionate chemical classes) quizalofop-p-ethyl formulated as Assure® II.
All stock solutions and applications solutions were visually inspected for compound compatibility prior to application. Compound requirements are based upon a 12 mL application volume at a rate of 187 liters per hectare (L/ha). Formulated compounds were applied to the plant material with an overhead Mandel track sprayer equipped with 8002E nozzles calibrated to deliver 187 L/ha over an application area of 0.503 square meters (m^2) at a spray height of 18 to 20 inches (46 to 50 cm) above the average plant canopy height. Control plants were sprayed in the same manner with the solvent blank.
(§1) The treated plants and control plants were placed in a greenhouse as described above and watered by sub-irrigation to prevent wash-off of the test compounds. After approximately 2 weeks, the condition of the test plants as compared with that of the untreated plants was determined visually and scored on a scale of 0 to 100 percent where 0 corresponds to no injury or growth inhibition and 100 corresponds to complete kill.
(§2) Colby's equation was used to determine the herbicidal effects expected from the mixtures (Colby, S. R. 1967. Calculation of the synergistic and antagonistic response of herbicide combinations. Weeds 15:20-22.).
The following equation was used to calculate the expected activity of mixtures containing two active ingredients, A and B: Expected=A+B−(A×B/100)

[2] = system: ECHOR; test: Example V (second) postemergence foliar-applied ternary mixtures, greenhouse, direct seeded rice weeds; format: in vivo, Echinochloa oryzoides (Ard.) Fritsch
Experimental: Seeds or nutlets of the desired test plant species were planted in a soil matrix prepared by mixing a sandy loam or loam soil (e.g., 32 percent silt, 23 percent clay, and 45 percent sand, with a pH of about 6.5 and an organic matter content of about 1.9 percent) and calcareous grit in an 80 to 20 ratio. The soil matrix was contained in plastic pots with a volume of 1 quart and a surface area of 83.6 square centimeters (cm^2). […] The plants were grown for 8-22 days in a greenhouse with an approximate 14 hr. photoperiod which was maintained at about 29° C. during the day and 26° C. during the night. Nutrients (Peters Excel® 15-5-15 5-Ca 2-Mg and iron chelate) were applied in the irrigation solution as needed and water was added on a regular basis. Supplemental lighting was provided with overhead metal halide 1000-Watt lamps as necessary. The plants were employed for testing when they reached the first through fourth true leaf stage.
Treatments consisted of the benzyl ester of 4-amino-3-chloro-5-fluoro-6-(4-chloro-2-fluoro-3-methoxy-phenyl)pyridine-2-carboxylic acid (Compound A), formulated as an SC (suspension concentrate), an ACCase inhibitor, and a third herbicidal component, each applied alone and in ternary combination. Forms of compound A were applied on an acid equivalent basis.
For treatments comprised of formulated compounds, measured amounts of compounds were placed individually in 25 mL glass vials and diluted in a volume of 1.25% (v/v) Agri-Dex® crop oil concentrate to obtain 12× stock solutions. […] Application solutions were prepared by adding an appropriate amount of each stock solution (e.g., 1 mL) and diluted to the appropriate final concentrations with the addition of 9 mL of an aqueous mixture of 1.25% (v/v) crop oil concentrate so that the final spray solutions contained 1.25% (v/v) crop oil concentrate.
As required, additional water and/or 97:3 v/v acetone/DMSO was added to individual application solutions so that the final acetone and DMSO concentrations of the application solutions being compared were 8.1% and 0.25%, respectively.
All stock solutions and applications solutions were visually inspected for compound compatibility prior to application. Spray solutions were applied to the plant material with an overhead Mandel track sprayer equipped with a 8002E nozzles calibrated to deliver 187 L/ha over an application area of 0.503 m^2 at a spray height of 18 inches (46 cm) above average plant canopy height. Control plants were sprayed in the same manner with the solvent blank.
as §1, with “3” for “2”
as §2
The following equation was used to calculate the expected activity of mixtures containing three active ingredients, A, B, and C: Expected=A+B+C−((A×B+A×C+B×C)/100)+(A×B×C/10000)

SMILES: COc1c(Cl)ccc(-c2nc(C(=O)O)c(Cl)c(N)c2F)c1F [Compound A Acid, 4-amino-3-chloro-6-(4-chloro-2-fluoro-3-methoxyphenyl)-5-fluoropyridine-2-carboxylic acid]
- Visual Weed Control (%) - 14 DAA AVEFA Obs ([1]; Compound A Acid 3.75 gae/ha): 0%
- Visual Weed Control (%) - 14 DAA AVEFA Obs ([1]; Compound A Acid 7.5 gae/ha): 0%
- Visual Weed Control (%) - 14 DAA AVEFA Obs ([1]; Compound A Acid 15 gae/ha): 0%

SMILES: CCC/C(=N\OCC(C)Oc1ccc(Cl)cc1)C1=C(O)CC(C2CCCSC2)CC1=O (stereo not drawn) [Profoxydim, 2-[1-[[2-(4-chlorophenoxy)propoxy]imino]butyl]-3-hydroxy-5-(tetrahydro-2H-thiopyran-3-yl)-2-cyclohexen-1-one, reference compound]
- Visual Weed Control (%) - 22 DAA ECHOR Obs ([2]; 3.12 gai/ha): 0%

SMILES: CCCCOC(=O)[C@@H](C)Oc1ccc(Oc2ccc(C#N)cc2F)cc1 [Cyhalofop-butyl, butyl(2R)-2-[4-(4-cyano-2-fluorophenoxy)phenoxy]propanoate, reference compound]
- Visual Weed Control (%)- 22 DAA ECHOR Obs ([2]; 17.5 gai/ha): 0%
- Visual Weed Control (%) - 22 DAA ECHOR Obs ([2]; 35 gai/ha): 15%
- Visual Weed Control (%)- 22 DAA ECHOR Obs ([2]; 35 gai/ha): 15%

SMILES: CCOC(=O)[C@@H](C)Oc1ccc(Oc2cnc3cc(Cl)ccc3n2)cc1 [Quizalofop-p-ethyl, ethyl(2R)-2-[4-[(6-chloro-2-quinoxalinyl)oxy]phenoxy]propanoate, reference compound]
- Visual Weed Control (%) - 14 DAA AVEFA Obs ([1]; Quizalofop-p-ethyl 14.25 gae/ha): 40%

SMILES: COc1c(Cl)ccc(-c2nc(C(=O)OCc3ccccc3)c(Cl)c(N)c2F)c1F [Compound A Benzyl Ester, benzyl ester of 4-amino-3-chloro-5-fluoro-6-(4-chloro-2-fluoro-3-methoxy-phenyl)pyridine-2-carboxylic acid]
- Visual Weed Control (%) - 14 DAA AVEFA Obs ([1]; Compound A Benzyl Ester 3.75 gae/ha): 10%
- Visual Weed Control (%) - 14 DAA AVEFA Obs ([1]; Compound A Benzyl Ester 7.5 gae/ha): 0%
- Visual Weed Control (%) - 14 DAA AVEFA Obs ([1]; Compound A Benzyl Ester 15 gae/ha): 10%
- Visual Weed Control (%) - 22 DAA ECHOR Obs ([2]; 8 gae/ha): 13% and 25%
- Visual Weed Control (%)- 22 DAA ECHOR Obs ([2]; 8 gae/ha): 13%
- Visual Weed Control (%) - 22 DAA ECHOR Obs ([2]; 16 gae/ha): 35%
- Visual Weed Control (%)- 22 DAA ECHOR Obs ([2]; 16 gae/ha): 40%
